Laboratory results reported in patent publication US10821115B2, “Compounds that inhibit Mcl-1 protein” (priority 2017, dated 2020).
Read-outs that look alike come from different tables or passages of the source.

Test system: human multiple myeloma cell line, OPM-2
Test: Cell viability assay (OPM-2 10 FBS), CellTiter-Glo
Assay type: cell-based
Method in brief: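 IC50 values come from 4-parameter logistic fits of luminescence signals reflecting cell viability. Treatment lasted 16 h at 37 °C in complete medium with 10% FBS, starting from 3000 cells/well.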

[1] = Homo sapiens, OPM-2, 16 h, read-out: OPM-2 10% FBS IC50 IP, OPM-2 cells, 10% FBS, 16 h, CellTiter-Glo
[2] = read-out: OPM-2 10% FBS IC50 IP, OPM-2 cells, 10% FBS, 16 h, CellTiter-Glo

| IC50 [2] | SMILES | IC50 [1] |
| --- | --- | --- |
|  | CCN(CC)C(=O)C[C@]1(OC)/C=C/C[C@H](C)[C@@H](C)S(=O)(=O)NC(=O)c2ccc3c(c2)N(C[C@@H]2CC[C@H]21)C[C@@]1(CCCc2cc(Cl)ccc21)CO3 [Example 100347, 2-((1S,3′R,6′R,7′S,8′E,11′S,12′R)-6-chloro-7′-methoxy-11′,12′-dimethyl-13′,13′-dioxido-15′-oxo-3,4-dihydro-2H-spiro[naphthalene-1,22′-[20]oxa[13]thia[1,14]diazatetracyclo [14.7.2.0~3,6~.0~19,24~]pentacosa[8,16,18,24]tetraen]-7′-yl)-N,N-diethylacetamide] | 1080 nM |
|  | CO[C@@]1(CC(=O)N(C)C2CC2)/C=C/C[C@H](C)[C@@H](C)S(=O)(=O)NC(=O)c2ccc3c(c2)N(C[C@@H]2CC[C@H]21)C[C@@]1(CCCc2cc(Cl)ccc21)CO3 [Example 100374, 2-((1S,3′R,6′R,7′S,8′E,11′S,12′R)-6-chloro-7′-methoxy-11′,12′-dimethyl-13′,13′-dioxido-15′-oxo-3,4-dihydro-2H-spiro[naphthalene-1,22′-[20]oxa[13]thia[1,14]diazatetracyclo [14.7.2.0~3,6~.0~19,24~]pentacosa[8,16,18,24]tetraen]-7′-yl)-N-cyclopropyl-N-methylacetamide] | 433 nM |
|  | C[C@@H]1[C@@H](C)CCC[C@](CO)(CN2CCOCC2)[C@@H]2CC[C@H]2CN2C[C@@]3(CCCc4cc(Cl)ccc43)COc3ccc(cc32)C(=O)NS1(=O)=O [Example 100406, (1S,3′R,6′R,7′R,11′S,12′R)-6-chloro-7′-(hydroxymethyl)-11′,12′-dimethyl-7′-(4-morpholinylmethyl)-3,4-dihydro-2H,15′H-spiro[naphthalene-1,22′-[20]oxa[13]thia[1,14]diazatetracyclo [14.7.2.0~3,6~.0~19,24~]pentacosa[16,18,24]trien]-15′-one 13′,13′-dioxide] | 747 nM |
|  | C[C@@H]1[C@@H](C)C/C=C/[C@](O)(c2ccc(F)nc2)[C@@H]2CC[C@H]2CN2C[C@@]3(CCCc4cc(Cl)ccc43)COc3ccc(cc32)C(=O)NS1(=O)=O [Example 100420, (1S,3′R,6′R,7′R,8′E,11′S,12′R)-6-chloro-7′-(6-fluoro-3-pyridinyl)-7′-hydroxy-11′,12′-dimethyl-3,4-dihydro-2H,15′H-spiro[naphthalene-1,22′-[20]oxa[13]thia[1,14]diazatetracyclo [14.7.2.0~3,6~.0~19,24~]pentacosa[8,16,18,24]tetraen]-15′-one 13′,13′-dioxide] | 161 nM |
|  | CO[C@@]1(CC(=O)C2CC2)/C=C/C[C@H](C)[C@@H](C)S(=O)(=O)NC(=O)c2ccc3c(c2)N(C[C@@H]2CC[C@H]21)C[C@@]1(CCCc2cc(Cl)ccc21)CO3 [Example 100443, (1S,3′R,6′R,7′S,8′E,11′S,12′R)-6-chloro-7′-(2-cyclopropyl-2-oxoethyl)-7′-methoxy-11′,12′-dimethyl-3,4-dihydro-2H,15′H-spiro[naphthalene-1,22′-[20]oxa[13]thia[1,14]diazatetracyclo [14.7.2.0~3,6~.0~19,24~]pentacosa[8,16,18,24]tetraen]-15′-one 13′,13′-dioxide] | 156 nM |
|  | C[C@@H]1[C@@H](C)C/C=C/[C@](O)(C#CCCc2ccccn2)[C@@H]2CC[C@H]2CN2C[C@@]3(CCCc4cc(Cl)ccc43)COc3ccc(cc32)C(=O)NS1(=O)=O [Example 100455, (1S,3′R,6′R,7′R,8′E,11′S,12′R)-6-chloro-7′-hydroxy-11′,12′-dimethyl-7′-(4-(2-pyridinyl)-1-butyn-1-yl)-3,4-dihydro-2H,15′H-spiro[naphthalene-1,22′-[20]oxa[13]thia[1,14]diazatetracyclo [14.7.2.0~3,6~.0~19,24~]pentacosa[8,16,18,24]tetraen]-15′-one 13′,13′-dioxide] | 140 nM |
| 1230 nM | CO[C@@]1(C#CCCN2CCS(=O)(=O)CC2)/C=C/C[C@H](C)[C@@H](C)S(=O)(=O)NC(=O)c2ccc3c(c2)N(C[C@@H]2CC[C@H]21)C[C@@]1(CCCc2cc(Cl)ccc21)CO3 [Example 100456, (1S,3′R,6′R,7′S,8′E,11′S,12′R)-6-chloro-7′-(4-(1,1-dioxido-4-thiomorpholinyl)-1-butyn-1-yl)-7′-methoxy-11′,12′-dimethyl-3,4-dihydro-2H,15′H-spiro[naphthalene-1,22′-[20]oxa[13]thia[1,14]diazatetracyclo [14.7.2.0~3,6~.0~19,24~]pentacosa[8,16,18,24]tetraen]-15′-one 13′,13′-dioxide] |  |
|  | COC[C@@]1(OC)/C=C/C[C@H](C)[C@@H](C)S(=O)(=O)NC(=O)c2ccc3c(c2)N(C[C@@H]2CC[C@H]21)C[C@@]1(CCCc2cc(Cl)ccc21)CO3 [Example 100464, (1S,3′R,6′R,7′R,8′E,11′S,12′R)-6-chloro-7′-methoxy-7′-(methoxymethyl)-11′,12′-dimethyl-3,4-dihydro-2H,15′H-spiro[naphthalene-1,22′-[20]oxa[13]thia[1,14]diazatetracyclo [14.7.2.0~3,6~.0~19,24~]pentacosa[8,16,18,24]tetraen]-15′-one 13′,13′-dioxide] | 1530 nM |
|  | CO[C@@]1(CC(=O)NCCO)/C=C/C[C@H](C)[C@@H](C)S(=O)(=O)NC(=O)c2ccc3c(c2)N(C[C@@H]2CC[C@H]21)C[C@@]1(CCCc2cc(Cl)ccc21)CO3 [Example 100465, 2-((1S,3′R,6′R,7′S,8′E,11′S,12′R)-6-chloro-7′-methoxy-11′,12′-dimethyl-13′,13′-dioxido-15′-oxo-3,4-dihydro-2H-spiro[naphthalene-1,22′-[20]oxa[13]thia[1,14]diazatetracyclo [14.7.2.0~3,6~.0~19,24~]pentacosa[8,16,18,24]tetraen]-7′-yl)-N-(2-hydroxyethyl)acetamide] | 729 nM |
|  | C=C(C)C(=O)C[C@]1(OC)/C=C/C[C@H](C)[C@@H](C)S(=O)(=O)NC(=O)c2ccc3c(c2)N(C[C@@H]2CC[C@H]21)C[C@@]1(CCCc2cc(Cl)ccc21)CO3 [Example 100476, (1S,3′R,6′R,7′S,8′E,11′S,12′R)-6-chloro-7′-methoxy-11′,12′-dimethyl-7′-(3-methyl-2-oxo-3-buten-1-yl)-3,4-dihydro-2H,15′H-spiro[naphthalene-1,22′-[20]oxa[13]thia[1,14]diazatetracyclo [14.7.2.0~3,6~.0~19,24~]pentacosa[8,16,18,24]tetraen]-15′-one 13′,13′-dioxide] | 1340 nM |
| 138 nM | CO[C@@]1(C#CCCc2ccncn2)/C=C/C[C@H](C)[C@@H](C)S(=O)(=O)NC(=O)c2ccc3c(c2)N(C[C@@H]2CC[C@H]21)C[C@@]1(CCCc2cc(Cl)ccc21)CO3 [Example 100519, (1S,3′R,6′R,7′S,8′E,11′S,12′R)-6-chloro-7′-methoxy-11′,12′-dimethyl-7′-(4-(4-pyrimidinyl)-1-butyn-1-yl)-3,4-dihydro-2H,15′H-spiro[naphthalene-1,22′-[20]oxa[13]thia[1,14]diazatetracyclo [14.7.2.0~3,6~.0~19,24~]pentacosa[8,16,18,24]tetraen]-15′-one 13′,13′-dioxide] |  |
|  | COC(=O)C(C)(C)NC(=O)C[C@]1(OC)/C=C/C[C@H](C)[C@@H](C)S(=O)(=O)NC(=O)c2ccc3c(c2)N(C[C@@H]2CC[C@H]21)C[C@@]1(CCCc2cc(Cl)ccc21)CO3 [Example 100544, methyl N-(((1S,3′R,6′R,7′S,8′E,11′S,12′R)-6-chloro-7′-methoxy-11′,12′-dimethyl-13′,13′-dioxido-15′-oxo-3,4-dihydro-2H-spiro[naphthalene-1,22′-[20]oxa[13]thia[1,14]diazatetracyclo [14.7.2.0~3,6~.0~19,24~]pentacosa[8,16,18,24]tetraen]-7′-yl)acetyl)-2-methylalaninate] | 306 nM |
|  | CO[C@@]1(CC(=O)NC(C)(C)C(=O)O)/C=C/C[C@H](C)[C@@H](C)S(=O)(=O)NC(=O)c2ccc3c(c2)N(C[C@@H]2CC[C@H]21)C[C@@]1(CCCc2cc(Cl)ccc21)CO3 [Example 100546, N-(((1S,3′R,6′R,7′S,8′E,11′S,12′R)-6-chloro-7′-methoxy-11′,12′-dimethyl-13′,13′-dioxido-15′-oxo-3,4-dihydro-2H-spiro[naphthalene-1,22′-[20]oxa[13]thia[1,14]diazatetracyclo [14.7.2.0~3,6~.0~19,24~]pentacosa[8,16,18,24]tetraen]-7′-yl)acetyl)-2-methylalanine] | 440 nM |
|  | COC(=O)CNC(=O)C[C@]1(OC)/C=C/C[C@H](C)[C@@H](C)S(=O)(=O)NC(=O)c2ccc3c(c2)N(C[C@@H]2CC[C@H]21)C[C@@]1(CCCc2cc(Cl)ccc21)CO3 [Example 100550, methyl N-(((1S,3′R,6′R,7′S,8′E,11′S,12′R)-6-chloro-7′-methoxy-11′,12′-dimethyl-13′,13′-dioxido-15′-oxo-3,4-dihydro-2H-spiro[naphthalene-1,22′-[20]oxa[13]thia[1,14]diazatetracyclo [14.7.2.0~3,6~.0~19,24~]pentacosa[8,16,18,24]tetraen]-7′-yl)acetyl)glycinate] | 6860 nM |
|  | CO[C@@]1(CC(=O)NCc2ncco2)/C=C/C[C@H](C)[C@@H](C)S(=O)(=O)NC(=O)c2ccc3c(c2)N(C[C@@H]2CC[C@H]21)C[C@@]1(CCCc2cc(Cl)ccc21)CO3 [Example 100577, 2-((1S,3′R,6′R,7′S,8′E,11′S,12′R)-6-chloro-7′-methoxy-11′,12′-dimethyl-13′,13′-dioxido-15′-oxo-3,4-dihydro-2H-spiro[naphthalene-1,22′-[20]oxa[13]thia[1,14]diazatetracyclo [14.7.2.0~3,6~.0~19,24~]pentacosa[8,16,18,24]tetraen]-7′-yl)-N-(1,3-oxazol-2-ylmethyl)acetamide] | 2020 nM |
|  | COC(=O)[C@H](NC(=O)C[C@]1(OC)/C=C/C[C@H](C)[C@@H](C)S(=O)(=O)NC(=O)c2ccc3c(c2)N(C[C@@H]2CC[C@H]21)C[C@@]1(CCCc2cc(Cl)ccc21)CO3)[C@@H](C)O [Example 100581, methyl N-(((1S,3′R,6′R,7′S,8′E,11′S,12′R)-6-chloro-7′-methoxy-11′,12′-dimethyl-13′,13′-dioxido-15′-oxo-3,4-dihydro-2H-spiro[naphthalene-1,22′-[20]oxa[13]thia[1,14]diazatetracyclo [14.7.2.0~3,6~.0~19,24~]pentacosa[8,16,18,24]tetraen]-7′-yl)acetyl)-D-allothreoninate] | 1540 nM |
